Laboratory results taken from patent US6723364B1, “Fog treatment method using a liquid composition for treating fruits and vegetables and implementing device” (Xeda International, priority 1998, dated 2004).
Converted amounts (≈) assume the structure as drawn.

system: Phytophtora parasitica; assay: Fungicidal activity in vitro: mycelial growth on Cristomalt agar; type: cell-based; conditions: PhP; MIC expressed on the scale of Table 2
Procedure: (§1) The Cristomalt medium used for the evaluations of the fungicidal activities comprises 0.1% of Cristomalt (malt extract) and 0.2% of agar.
(§2) This culture medium is, after sterilization, brought to 55° C. The terpene compound tested is then introduced in the pure form into the culture medium under warm conditions. Immediately after agitating, the medium, enriched with the terpene product, is poured into Petri dishes (diameter 9 cm, filled with 20 ml of medium). The agar-comprising medium solidifies on cooling. The Petri dishes are then inoculated with plugs, with a diameter of 6 mm, withdrawn from the edge of a culture of the tested fungus, which culture is obtained on Cristomalt medium.
(§3) Inoculation is carried out at 22° C.
(§4) The mycelial growth was determined periodically (5 to 15 days, according to the species of fungus).
(§5) The results are expressed in Table 3 below in terms of MIC, which is the content (in μg/ml) which makes it possible to obtain complete inhibition of mycelial growth.
(§6) In f act, each experiment was carried out several times, so that, for each terpene and for each species of fungus, a minimum value and a maximum value were obtained.

| Compound | Inhibition grades |
| --- | --- |
| CC12CCC(CC1)C(C)(C)O2 [EUCALYPTOL, eucalyptol] | 3 (320-640) |

same assay, conditions: PhP; min-max range of several experiments; 22° C.; read-out: MIC (content giving complete inhibition of mycelial growth)

| Compound | MIC |
| --- | --- |
| CC12CCC(CC1)C(C)(C)O2 [EUCALYPTOL, eucalyptol] | 320 to 640 µg/mL (≈ 2.07 to 4.15 mM) |

system: Alternaria alternata; assay: as above; type: cell-based; conditions: AA; MIC expressed on the scale of Table 2
Procedure: as §1, §2, §3, §4, §5, §6

| Compound | Inhibition grades |
| --- | --- |
| CC12CCC(CC1)C(C)(C)O2 [EUCALYPTOL, eucalyptol] | 1 (>1280) |

same assay, conditions: Alternaria alternata; AA; min-max range of several experiments; 22° C.; read-out: MIC (content giving complete inhibition of mycelial growth)

| Compound | MIC |
| --- | --- |
| CC12CCC(CC1)C(C)(C)O2 [EUCALYPTOL, eucalyptol] | > 1280 µg/mL |

system: Gliocladium roseum; assay: as above; type: cell-based; conditions: Clonostachys rosea; GR; min-max range of several experiments; 22° C.; read-out: MIC (content giving complete inhibition of mycelial growth)
Procedure: as §1, §2, §3, §4, §5, §6

| Compound | MIC |
| --- | --- |
| CC12CCC(CC1)C(C)(C)O2 [EUCALYPTOL, eucalyptol] | 320 to 640 µg/mL (≈ 2.07 to 4.15 mM) |

same assay, conditions: GR; MIC expressed on the scale of Table 2

| Compound | Inhibition grades |
| --- | --- |
| CC12CCC(CC1)C(C)(C)O2 [EUCALYPTOL, eucalyptol] | 3 (320-640) |

system: Fusarium oxysporum; assay: as above; type: cell-based; conditions: Fusarium oxysporum; FO; min-max range of several experiments; 22° C.; read-out: MIC (content giving complete inhibition of mycelial growth)
Procedure: as §1, §2, §3, §4, §5, §6

| Compound | MIC |
| --- | --- |
| CC12CCC(CC1)C(C)(C)O2 [EUCALYPTOL, eucalyptol] | 640 to 1280 µg/mL (≈ 4.15 to 8.3 mM) |

same assay, conditions: OF; MIC expressed on the scale of Table 2

| Compound | Inhibition grades |
| --- | --- |
| CC12CCC(CC1)C(C)(C)O2 [EUCALYPTOL, eucalyptol] | 2 (640-1280) |

system: Geocrichum candidum; assay: as above; type: cell-based; conditions: GC; MIC expressed on the scale of Table 2
Procedure: as §1, §2, §3, §4, §5, §6

| Compound | Inhibition grades |
| --- | --- |
| CC12CCC(CC1)C(C)(C)O2 [EUCALYPTOL, eucalyptol] | 3 (320-640) |

same assay, conditions: GC; min-max range of several experiments; 22° C.; read-out: MIC (content giving complete inhibition of mycelial growth)

| Compound | MIC |
| --- | --- |
| CC12CCC(CC1)C(C)(C)O2 [EUCALYPTOL, eucalyptol] | 320 to 640 µg/mL (≈ 2.07 to 4.15 mM) |

system: Penicillium digitatum; assay: as above; type: cell-based; conditions: PD; MIC expressed on the scale of Table 2
Procedure: as §1, §2, §3, §4, §5, §6

| Compound | Inhibition grades |
| --- | --- |
| CC12CCC(CC1)C(C)(C)O2 [EUCALYPTOL, eucalyptol] | 1 (>1280) |

same assay, conditions: Penicillium digitatum; PD; min-max range of several experiments; 22° C.; read-out: MIC (content giving complete inhibition of mycelial growth)

| Compound | MIC |
| --- | --- |
| CC12CCC(CC1)C(C)(C)O2 [EUCALYPTOL, eucalyptol] | > 1280 µg/mL |

system: Botrytis cinerea; assay: as above; type: cell-based; conditions: BC; MIC expressed on the scale of Table 2
Procedure: as §1, §2, §3, §4, §5, §6

| Compound | Inhibition grades |
| --- | --- |
| CC12CCC(CC1)C(C)(C)O2 [EUCALYPTOL, eucalyptol] | 2 (640-1280) |

same assay, conditions: Botrytis cinerea; BC; min-max range of several experiments; 22° C.; read-out: MIC (content giving complete inhibition of mycelial growth)

| Compound | MIC |
| --- | --- |
| CC12CCC(CC1)C(C)(C)O2 [EUCALYPTOL, eucalyptol] | 640 to 1280 µg/mL (≈ 4.15 to 8.3 mM) |

system: Phytophtora parasitica; assay: Germination of the spores in vitro; type: cell-based; conditions: PhP; x = 40 μg/ml
Procedure: (§7) The activity of eugenol and of isoeugenol on the germination of the spores was evaluated in vitro and compared with that of other terpenes.
(§8) The procedure of Example 4 is used to do this, except that the concentration of eugenol and of isoeugenol was set at x μg/ml in the culture media used and that 50 μl of a suspension of spores, adjusted to 100,000 spores/ml, are deposited in each Petri dish.
(§9) The same experiment was carried out starting with a terpene-free culture medium (control test).
(§10) The results were evaluated using the following assessment criteria:
(§11) +: considerable reduction in the level of spores germinated
(§12) The results obtained for 3 different concentrations of terpenes in the culture medium, namely 40 μg/ml, 80 μg/ml and 1280 μg/ml, are listed in Tables 4, 5 and 6.

| Compound | germination of the spores |
| --- | --- |
| CC12CCC(CC1)C(C)(C)O2 [EUCALYPTOL, eucalyptol] | ++ |

same assay, conditions: PhP; x = 80 μg/ml

| Compound | germination of the spores |
| --- | --- |
| CC12CCC(CC1)C(C)(C)O2 [EUCALYPTOL, eucalyptol] | + |

same assay, conditions: PhP; x = 1280 μg/ml

| Compound | germination of the spores |
| --- | --- |
| CC12CCC(CC1)C(C)(C)O2 [EUCALYPTOL, eucalyptol] | 0 |

system: Alternaria alternata; assay: Germination of the spores in vitro; type: cell-based; conditions: AA; x = 40 μg/ml;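 note: ++ germination like control and 0 no spores germinated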
Procedure: as §7, §8, §9, §10, §11, §12

| Compound | germination of the spores |
| --- | --- |
| CC12CCC(CC1)C(C)(C)O2 [EUCALYPTOL, eucalyptol] | ++ |

same assay, conditions: AA; x = 80 μg/ml

| Compound | germination of the spores |
| --- | --- |
| CC12CCC(CC1)C(C)(C)O2 [EUCALYPTOL, eucalyptol] | ++ |

same assay, conditions: AA; x = 1280 μg/ml

| Compound | germination of the spores |
| --- | --- |
| CC12CCC(CC1)C(C)(C)O2 [EUCALYPTOL, eucalyptol] | 0 |

system: Penicillium expansum; assay: Germination of the spores in vitro; type: cell-based; conditions: PE; x = 40 μg/ml;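 note: ++ germination like control and 0 no spores germinated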
Procedure: as §7, §8, §9, §10, §11, §12

| Compound | germination of the spores |
| --- | --- |
| CC12CCC(CC1)C(C)(C)O2 [EUCALYPTOL, eucalyptol] | + |

same assay, conditions: PE; x = 80 μg/ml

| Compound | germination of the spores |
| --- | --- |
| CC12CCC(CC1)C(C)(C)O2 [EUCALYPTOL, eucalyptol] | + |
